Laboratory results: PMC12495443, “Developing inhibitors of the guanosine triphosphate hydrolysis accelerating activity of Regulator of G protein Signaling-14 [drawing 1]” (The Journal of Biological Chemistry, 2025)

Key:
[1] = biological target: T1, human RGS14 RGS-box (wild-type) (Homo sapiens, UniProt O43566); test: Transcreener GDP RGScreen fluorescence polarization assay of RGS14 RGS-box GAP activity on Gαi1(DM); format: biochemical; details: for Ratio (RGS14 pIC50 / RGS12 pIC50): values > 1.0 reflect RGS14 selectivity; for IC50: read-out: RGS14 pIC50 (converted)
T1 construct: human RGS14 RGS-box (aa 46–195 of UniProt O43566); host or cells: E. coli
T1 sequence (O43566 46-195): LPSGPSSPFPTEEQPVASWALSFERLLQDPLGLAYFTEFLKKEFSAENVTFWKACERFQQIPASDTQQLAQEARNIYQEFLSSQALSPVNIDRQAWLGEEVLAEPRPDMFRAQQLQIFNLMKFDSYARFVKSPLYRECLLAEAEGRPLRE
Text: (§1) We previously described work with BellBrook Labs creating the Transcreener GDP RGScreen fluorescence polarization assay of steady-state GTP hydrolysis, leveraging a double point-mutant in the Gα enzyme to make GTP hydrolysis, rather than GDP (product) release, the rate-limiting step for multiple rounds of GTP conversion ([57], [59]). […] Titrating inputs of the double point-mutant (“DM”) Gαi1 and RGS-box recombinant proteins (Fig. S2, B and C) established a robust, medium-throughput assay for evaluating potential RGS14 and RGS12 inhibitors, with “assay quality” Z′ scores ([60]) above 0.76 for each target (Fig. S2D).
(§2) Reagents and protocols for the fluorescence anisotropy-based Transcreener GDP RGScreen assay using a rate-altered, double point-mutant, recombinant Gαi1 protein have been extensively described previously ([43], [44]); reactions were always performed so that total GTP converted over the time course was consistently less than 10% of reaction maximum input. Specific methods for its application in assessing RGS14 and RGS12 GAP activity are summarized as follows. Open-reading frames (ORFs) encoding wild-type versions of the human RGS14 RGS-box (aa 46–195 of UniProt O43566) and human RGS12 RGS-box (aa 695–843 of UniProt O14924) were each sub-cloned in-frame with an N-terminal hexahistidine (His6) expression tag in the plasmid pET30a, expressed in E. coli cultures, and then purified by nickel-nitriloacetate (Ni-NTA) and size-exclusion (Superdex 200) column chromatographies by GenScript using previously described methods ([35]). These recombinant His6-tag fusion proteins were stored at −80 °C in storage buffer (150 mM NaCl, 50 mM Tris-HCl pH 8.0, 10% glycerol) before thawing and use. Cysteine-less versions were similarly produced by ORF site-directed mutagenesis: for RGS14, codons for cysteine residues 47 and 130 (numbered as in PDB id 2JNU) were replaced with serine codons; for RGS12, codons for cysteines 4, 51, 78, and 134 (numbered in relation to PDB id 2EBZ) were replaced with serine codons. Use of Transcreener GDP-detection reagents to assess compound inhibition of Naegleria fowleri Gα7 protein GTPase activity ([83]) has previously been described ([84]).

[2] = biological target: T2, human RGS12 RGS-box (wild-type) (Homo sapiens, UniProt O14924); test: Transcreener GDP RGScreen fluorescence polarization assay of RGS12 RGS-box GAP activity on Gαi1(DM); format: biochemical; details: for IC50: read-out: RGS12 pIC50 (converted)
T2 construct: human RGS12 RGS-box (aa 695–843 of UniProt O14924); host or cells: E. coli
T2 sequence (O14924 695-843): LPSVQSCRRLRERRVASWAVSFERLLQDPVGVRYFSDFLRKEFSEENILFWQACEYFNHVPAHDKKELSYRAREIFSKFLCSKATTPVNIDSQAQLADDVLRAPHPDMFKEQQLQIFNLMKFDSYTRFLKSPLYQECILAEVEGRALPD
Text: as §1, §2

[3] = wild-type RGS14 RGS-box GAP activity, Gαi1(DM), Transcreener GDP RGScreen
[4] = wild-type RGS12 RGS-box GAP activity, Gαi1(DM)

Row | SMILES | inhibition of RGS14 RGS-box GAP activity (in words) ([1]; Transcreener GDP RGScreen) | inhibition of RGS12 RGS-box GAP activity (in words) [2] | Ratio (RGS14 pIC50 / RGS12 pIC50) [1] | IC50 [1, 3] | IC50 [2, 4] | RGS14 pIC50 [1, 3] | RGS12 pIC50 [2, 4]
1 | O=c1[nH]c(-c2ccc(C(F)(F)F)cc2)nn1-c1cc(Cl)ccc1O [BMS-192364, reference compound] | inactive | inactive | – | – | – | – | –
2 | CC(C)c1nnc2n1N=C(c1cc3ccccc3o1)CS2 [Z55627782] | – | – | 0.82 | 191 µM | 27.5 µM | – | –
3 | Cc1ccc(C2=Nn3c(COc4ccccc4)nnc3SC2)c(C)c1 [Z55659515] | – | – | – | 4.07 µM | 4.07 µM | – | –
4 | COc1ccc(OCc2nnc3n2N=C(c2ccc(NC(C)=O)cc2)CS3)cc1 [Z55660046] | – | – | – | > 1000 µM | 155 µM | – | –
5 | COc1ccc(OCc2nnc3n2N=C(c2ccc(C)cc2)[C@@H](C)S3)cc1 [Z55660052] | – | – | 0.86 | 20.4 µM | 3.63 µM | – | –
6 | CC(C)(C)c1ccc(C2=Nn3c(nnc3-c3ccco3)SC2)cc1 [Z55660110] | – | – | – | 56.2 µM | 53.7 µM | – | –
7 | c1ccc2c(c1)OC[C@@H](c1nnc3n1N=C(c1ccc4c(c1)OCCO4)CS3)O2 [Z55660304] | – | – | 0.90 | 28.8 µM | 8.71 µM | – | –
8 | Fc1ccccc1OCc1nnc2n1N=C(c1ccc(Cl)cc1)CS2 [Z55660438] | – | – | 0.77 | 234 µM | 20.4 µM | – | –
9 | CCCc1ccc(C2=Nn3c(COc4ccccc4F)nnc3SC2)cc1 [Z55660462] | – | – | 0.96 | 16.6 µM | 10.5 µM | – | –
10 | COc1cccc(C2=Nn3c(COc4ccc(Cl)cc4)nnc3SC2)c1 [Z55660496] | – | – | 0.85 | 191 µM | 42.7 µM | – | –
11 | Cc1ccc(C2=Nn3c(COc4ccc(Cl)cc4)nnc3SC2)c(C)c1 [Z55660524] | – | – | 0.82 | 170 µM | 26.9 µM | – | –
12 | CC1Sc2nnc(Cc3ccc(Br)cc3)n2N=C1c1ccc(Cl)cc1 (centres unmarked) [Z55660592] | – | – | 0.93 | 21.4 µM | 10 µM | – | –
13 | COc1ccc(Cc2nnc3n2N=C(c2ccccc2)C(C)S3)cc1OC (centres unmarked) [Z55660788] | – | – | 0.90 | – | – | 4.03 | 4.50
14 | COc1ccc(Cc2nnc3n2N=C(c2ccc(C)c(C)c2)[C@@H](C)S3)cc1OC [Z55660805] | – | – | 0.91 | 75.9 µM | 29.5 µM | – | –
15 | FC(F)Oc1ccc(C2=Nn3c(COc4ccccc4)nnc3SC2)cc1 [Z56840012] | – | – | 0.90 | 36.3 µM | 11.5 µM | – | –
16 | CCN(CC)S(=O)(=O)c1cccc(-c2nnc3n2N=C(c2ccc(C)cc2)C(CC(=O)O)S3)c1 (centres unmarked) [Z90274338] | – | – | 1.14 | 93.3 µM | 288 µM | – | –
17 | Cc1ccc(C2=Nn3c(nnc3C3CC3)SC2CC(=O)O)cc1 (centres unmarked) [Z90274594] | – | – | 0.85 | 275 µM | 66.1 µM | – | –
18 | O=C(O)CC1Sc2nnc(C3CC3)n2N=C1c1ccccc1 (centres unmarked) [Z90274597] | – | – | 0.92 | 302 µM | 151 µM | – | –
19 | O=C(O)CC1Sc2nnc(C3CC3)n2N=C1c1ccc(F)cc1 (centres unmarked) [Z90274599] | – | – | 0.92 | 91.2 µM | 41.7 µM | – | –
20 | O=C(O)CC1Sc2nnc(C3COc4ccccc4O3)n2N=C1c1cccs1 (centres unmarked) [Z90275816] | – | – | 1.08 | 20.4 µM | 44.7 µM | – | –
